Source: paper PMC11530689, “Anti colorectal cancer activity and in silico studies of novel pyridine nortopsentin analog as cyclin dependent kinase 6 inhibitor” (Scientific Reports, 2024)

What was measured:
Experiment in all cases: NCI 60 cell line screen
Assay type in all cases: cell-based
SK-MEL-2 = details: SK-MEL-2, Melanoma; single concentration 10^−5 M
Experimental: (§1) The cytotoxic activity of nortopsintin analogs (4a-4j) was determined by the national cancer institute (NCI, Bethesda, Maryland, USA) against 60 different cancer cell lines at a single concentration of (10^-5 M). For the determination of IC50 value, we used MTT assay kit (Sigma) according to the manufacturer's protocol. HCT-116 cells were seeded into a 96-well plate at a concentration of 20,000 cells/well. After 24 h, the media was aspirated and replaced with serum-free media containing serial dilutions of the 4i compound. […] The percentage of cytotoxicity was calculated using the following equation: % Cytotoxicity = [1 - ([…])] × 100.

HT29 = details: HT29, Colon Cancer; single concentration 10^−5 M
Experimental: as §1

OVCAR-5 = details: OVCAR-5, Ovarian Cancer; single concentration 10^−5 M
Experimental: as §1

MDA-MB-435 = details: MDA-MB-435, Melanoma; single concentration 10^−5 M
Experimental: as §1

HOP-62 = details: HOP-62, Non-Small Cell Lung Cancer; single concentration 10^−5 M
Experimental: as §1

CCRF-CEM = details: Leukemia, single concentration 10^−5 M
Experimental: as §1

MDA-MB-231/ATCC = details: Breast Cancer, single concentration 10^−5 M
Experimental: as §1

COLO205 = details: COLO205, Colon Cancer; single concentration 10^−5 M
Experimental: as §1

KM12 = details: KM12, Colon Cancer; single concentration 10^−5 M
Experimental: as §1

DU-145 = details: DU-145, Prostate Cancer; single concentration 10^−5 M
Experimental: as §1

HS 578T = details: Breast Cancer, single concentration 10^−5 M
Experimental: as §1

SW-620 = details: SW-620, Colon Cancer; single concentration 10^−5 M
Experimental: as §1

IGROV1 = details: IGROV1, Ovarian Cancer; single concentration 10^−5 M
Experimental: as §1

SN12C = details: Renal Cancer, single concentration 10^−5 M
Experimental: as §1

SNB-75 = details: SNB-75, CNS Cancer; single concentration 10^−5 M
Experimental: as §1

M14 = details: M14, Melanoma; single concentration 10^−5 M
Experimental: as §1

NCI-H460 = details: NCI-H460, Non-Small Cell Lung Cancer; single concentration 10^−5 M
Experimental: as §1

UO-31 = details: UO-31, Renal Cancer; single concentration 10^−5 M
Experimental: as §1

PC-3 = details: PC-3, Prostate Cancer; single concentration 10^−5 M
Experimental: as §1

SF-268 = details: SF-268, CNS Cancer; single concentration 10^−5 M
Experimental: as §1

HL-60 (TB) = details: Leukemia, single concentration 10^−5 M
Experimental: as §1

SF-295 = details: SF-295, CNS Cancer; single concentration 10^−5 M
Experimental: as §1

NCI-H522 = details: NCI-H522, Non-Small Cell Lung Cancer; single concentration 10^−5 M
Experimental: as §1

SNB-19 = details: SNB-19, CNS Cancer; single concentration 10^−5 M
Experimental: as §1

K-562 = details: K-562, Leukemia; single concentration 10^−5 M
Experimental: as §1

U251 = details: U251, CNS Cancer; single concentration 10^−5 M
Experimental: as §1

MALME-3M = details: Melanoma, single concentration 10^−5 M
Experimental: as §1

CAKI-1 = details: CAKI-1, Renal Cancer; single concentration 10^−5 M
Experimental: as §1

SR = details: Leukemia, single concentration 10^−5 M
Experimental: as §1

LOX IMVI = details: Melanoma, single concentration 10^−5 M
Experimental: as §1

TK-10 = details: TK-10, Renal Cancer; single concentration 10^−5 M
Experimental: as §1

HCC-2998 = details: HCC-2998, Colon Cancer; single concentration 10^−5 M
Experimental: as §1

RXF 393 = details: RXF 393, Renal Cancer; single concentration 10^−5 M
Experimental: as §1

T-47D = details: Breast Cancer, single concentration 10^−5 M
Experimental: as §1

MOLT-4 = details: MOLT-4, Leukemia; single concentration 10^−5 M
Experimental: as §1

RPMI-8226 = details: RPMI-8226, Leukemia; single concentration 10^−5 M
Experimental: as §1

BT-549 = details: BT-549, Breast Cancer; single concentration 10^−5 M
Experimental: as §1

MCF7 = details: MCF7, Breast Cancer; single concentration 10^−5 M
Experimental: as §1

SMILES | Growth % (SK-MEL-2) | Growth % (HT29) | Growth % (OVCAR-5) | Growth % (MDA-MB-435) | Growth % (HOP-62) | Growth % (CCRF-CEM) | Growth % (MDA-MB-231/ATCC) | Growth % (COLO205) | Growth % (KM12) | Growth % (DU-145) | Growth % (HS 578T) | Growth % (SW-620) | Growth % (IGROV1) | Growth % (SN12C) | Growth % (SNB-75) | Growth % (M14) | Growth % (NCI-H460) | Growth % (UO-31) | Growth % (PC-3) | Growth % (SF-268) | also measured
COc1cc(-c2cc(-c3c[nH]c4ccccc34)nc(-c3c[nH]c4ccccc34)c2C#N)cc(OC)c1OC [4g] | 92.02% | 105.35% | 103.55% | 100.31% | 87.93% | 99.17% | 82.84% | 106.57% | 99.69% | 106.13% | 99.50% | 100.40% | 74.20% | 91.09% | 77.85% | 98.40% | 106.65% | 65.92% | 91.47% | 97.03% | Growth % (HL-60 (TB)): 101.32%; Growth % (SF-295): 95.05%; Growth % (NCI-H522): 93.33%; Growth % (SNB-19): 98.31%; Growth % (K-562): 90.08%; Growth % (U251): 100.17%; Growth % (MALME-3M): 88.70%; Growth % (CAKI-1): 75.97%; Growth % (SR): 94.92%; Growth % (LOX IMVI): 98.85%; Growth % (TK-10): 128.09%; Growth % (HCC-2998): 107.87%; Growth % (RXF 393): 120.31%; Growth % (T-47D): 96.11%; Growth % (MOLT-4): 100.72%; Growth % (RPMI-8226): 97.18%; Growth % (BT-549): 101.50%; Growth % (MCF7): 88.35%
CN(C)c1ccc(-c2cc(-c3c[nH]c4ccccc34)nc(-c3c[nH]c4ccccc34)c2C#N)cc1 [4i] | 102.08% | 63.02% | 102.79% | 81.62% | 82.30% | 78.55% | 99.81% | 91.18% | 58.37% | 99.65% | 104.13% | 46.63% | 74.28% | 92.07% | 86.73% | 97.66% | 60.31% | 72.88% | 89.56% | 96.47% | Growth % (HL-60 (TB)): 85.35%; Growth % (SF-295): 79.83%; Growth % (NCI-H522): 93.15%; Growth % (SNB-19): 79.65%; Growth % (K-562): 39.74%; Growth % (U251): 92.50%; Growth % (MALME-3M): 97.41%; Growth % (CAKI-1): 68.37%; Growth % (SR): 32.38%; Growth % (LOX IMVI): 70.02%; Growth % (TK-10): 107.28%; Growth % (HCC-2998): 88.23%; Growth % (RXF 393): 106.90%; Growth % (T-47D): 95.86%; Growth % (MOLT-4): 98.39%; Growth % (RPMI-8226): 69.39%; Growth % (BT-549): 103.60%; Growth % (MCF7): 49.30%
N#Cc1c(-c2ccc(O)cc2)cc(-c2c[nH]c3ccccc23)nc1-c1c[nH]c2ccccc12 [4j] | 100.11% | 111.48% | 108.44% | 90.35% | 94.38% | 76.51% | 92.33% | 111.37% | 96.89% | 104.31% | 89.18% | 108.39% | 76.43% | 95.63% | 90.85% | 100.26% | 103.74% | 78.37% | 98.38% | 105.02% | Growth % (HL-60 (TB)): 107.76%; Growth % (SF-295): 87.00%; Growth % (NCI-H522): 85.59%; Growth % (SNB-19): 108.35%; Growth % (K-562): 67.98%; Growth % (U251): 96.90%; Growth % (MALME-3M): 114.20%; Growth % (CAKI-1): 90.60%; Growth % (SR): 76.19%; Growth % (LOX IMVI): 62.75%; Growth % (TK-10): 149.07%; Growth % (HCC-2998): 126.05%; Growth % (RXF 393): 83.24%; Growth % (T-47D): 98.31%; Growth % (MOLT-4): 87.60%; Growth % (RPMI-8226): 101.54%; Growth % (BT-549): 96.81%; Growth % (MCF7): 87.55%
